From PubChem BioAssay (NCI)
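48-hour exposure; five concentrations; linearly interpolated endpoints. GI50 = concentration required for 50% inhibition of growth. TGI denotes the concentration required for complete inhibition of growth.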

Columns and labels:
Assay in all cases: NCI tumour cell line growth inhibition, 48 h
[1] = test system: 786-0 renal
[2] = test system: A498 renal
[3] = test system: A549 NSCLC
[4] = test system: ACHN renal
[5] = test system: BT-549 breast
[6] = test system: CAKI-1 renal
[7] = test system: CCRF-CEM leukemia
[8] = test system: COLO 205 colon
[9] = test system: DU-145 prostate
[10] = test system: EKVX NSCLC
[11] = test system: HCC-2998 colon
[12] = test system: HCT-116 colon
[13] = test system: HCT-15 colon
[14] = test system: HL-60(TB) leukemia
[15] = test system: HOP-62 NSCLC
[16] = test system: HS 578T breast
[17] = test system: HT29 colon
[18] = test system: IGROV1 ovarian
[19] = test system: K-562 leukemia
[20] = test system: KM12 colon
[21] = test system: LOX IMVI melanoma
[22] = test system: M14 melanoma
[23] = test system: MALME-3M melanoma
[24] = test system: MCF7 breast
[25] = test system: MDA-MB-231 breast
[26] = test system: MDA-MB-435
[27] = test system: MOLT-4 leukemia
[28] = test system: NCI-H226 lung
[29] = test system: NCI-H23 lung
[30] = test system: NCI-H460 lung
[31] = test system: NCI/ADR-RES ovarian
[32] = test system: OVCAR-3 ovarian
[33] = test system: OVCAR-4 ovarian
[34] = test system: OVCAR-5 ovarian
[35] = test system: OVCAR-8 ovarian
[36] = test system: PC-3 prostate
[37] = test system: RPMI-8226 leukemia
[38] = test system: RXF 393 renal
[39] = test system: SF-268 CNS
[40] = test system: SF-295 CNS
[41] = test system: SF-539 CNS
[42] = test system: SK-MEL-28 melanoma
[43] = test system: SK-MEL-5 melanoma
[44] = test system: SK-OV-3 ovarian
[45] = test system: SN12C renal
[46] = test system: SNB-19 CNS
[47] = test system: SR leukemia
[48] = test system: SW-620 colon
[49] = test system: TK-10 renal
[50] = test system: U251 CNS
[51] = test system: UACC-257 melanoma
[52] = test system: UACC-62 melanoma
[53] = test system: UO-31 renal
[54] = test system: HOP-92 NSCLC
[55] = test system: NCI-H522 lung
[56] = test system: SK-MEL-2 melanoma
[57] = test system: SNB-75 CNS
[58] = test system: T-47D breast

O=[N+]([O-])/C(C(Cl)=C(Cl)Cl)=C1\NCCS1
TGI [1]: > 100 µM | TGI [2]: > 100 µM | TGI [3]: > 100 µM | TGI [4]: > 100 µM | TGI [5]: > 100 µM | TGI [6]: > 100 µM | TGI [7]: 46.2 µM | TGI [8]: > 100 µM | TGI [9]: > 100 µM | TGI [10]: > 100 µM | TGI [11]: > 100 µM | TGI [12]: > 100 µM | TGI [13]: > 100 µM | TGI [14]: 48.3 µM | TGI [15]: > 100 µM | TGI [16]: > 100 µM | TGI [17]: > 100 µM | TGI [18]: > 100 µM | TGI [19]: 41.4 µM | TGI [20]: > 100 µM | TGI [21]: 44.1 µM | TGI [22]: > 100 µM | TGI [23]: 92.6 µM | TGI [24]: > 100 µM | TGI [25]: > 100 µM | TGI [26]: > 100 µM | TGI [27]: 62.4 µM | TGI [28]: > 100 µM | TGI [29]: > 100 µM | TGI [30]: > 100 µM | TGI [31]: > 100 µM | TGI [32]: > 100 µM | TGI [33]: > 100 µM | TGI [34]: > 100 µM | TGI [35]: > 100 µM | TGI [36]: > 100 µM | TGI [37]: 54.5 µM | TGI [38]: 58.8 µM | TGI [39]: > 100 µM | TGI [40]: > 100 µM | TGI [41]: > 100 µM | TGI [42]: > 100 µM | TGI [43]: > 100 µM | TGI [44]: > 100 µM | TGI [45]: > 100 µM | TGI [46]: > 100 µM | TGI [47]: 46.4 µM | TGI [48]: > 100 µM | TGI [49]: > 100 µM | TGI [50]: > 100 µM | TGI [51]: > 100 µM | TGI [52]: > 100 µM | TGI [53]: > 100 µM

Cc1c2c(nn1-c1ccc(S/N=C3\SCC(=O)CN3Cc3ccccc3)cc1)-c1ccccc1CC2
GI50 [1]: 89.2 µM | TGI [1]: > 100 µM | GI50 [3]: 46.7 µM | TGI [3]: > 100 µM | GI50 [4]: 32.9 µM | TGI [4]: > 100 µM | GI50 [5]: 22.5 µM | TGI [5]: 54.7 µM | GI50 [6]: 26.6 µM | TGI [6]: 87.6 µM | GI50 [7]: 6.45 µM | TGI [7]: > 100 µM | GI50 [8]: 63.4 µM | TGI [8]: > 100 µM | GI50 [9]: 50.5 µM | TGI [9]: > 100 µM | GI50 [10]: 46.6 µM | TGI [10]: > 100 µM | GI50 [11]: 72.9 µM | TGI [11]: > 100 µM | GI50 [13]: 31.7 µM | TGI [13]: > 100 µM | GI50 [14]: 34.1 µM | TGI [14]: > 100 µM | GI50 [15]: > 100 µM | TGI [15]: > 100 µM | GI50 [54]: > 100 µM | TGI [54]: > 100 µM | GI50 [17]: 51.5 µM | TGI [17]: > 100 µM | GI50 [18]: 24 µM | TGI [18]: > 100 µM | GI50 [19]: 30.1 µM | TGI [19]: > 100 µM | GI50 [20]: 60.1 µM | TGI [20]: > 100 µM | GI50 [21]: 10.7 µM | TGI [21]: 25 µM | GI50 [22]: 46.5 µM | TGI [22]: > 100 µM | GI50 [23]: 41.4 µM | TGI [23]: 82.7 µM | GI50 [24]: 3.74 µM | TGI [24]: 35 µM | GI50 [25]: 24.8 µM | TGI [25]: 87.3 µM | GI50 [26]: 20.6 µM | TGI [26]: 48.5 µM | GI50 [27]: 9.62 µM | TGI [27]: > 100 µM | GI50 [28]: 38.5 µM | TGI [28]: > 100 µM | GI50 [29]: 49.8 µM | TGI [29]: > 100 µM | GI50 [30]: 29.4 µM | TGI [30]: > 100 µM | GI50 [55]: 22.6 µM | TGI [55]: 59.7 µM | GI50 [31]: 39.2 µM | TGI [31]: > 100 µM | GI50 [32]: 25.2 µM | TGI [32]: 68.3 µM | GI50 [33]: 96.7 µM | TGI [33]: > 100 µM | GI50 [34]: > 100 µM | TGI [34]: > 100 µM | GI50 [35]: 41 µM | TGI [35]: > 100 µM | GI50 [36]: 27.7 µM | TGI [36]: > 100 µM | GI50 [37]: 31.1 µM | TGI [37]: > 100 µM | GI50 [38]: 22.6 µM | TGI [38]: 54.7 µM | GI50 [39]: 17.6 µM | TGI [39]: 46.1 µM | GI50 [40]: 25.7 µM | TGI [40]: 91.5 µM | GI50 [41]: 29.5 µM | TGI [41]: 58.2 µM | GI50 [56]: 58.2 µM | TGI [56]: > 100 µM | GI50 [42]: 24.6 µM | TGI [42]: 62.4 µM | GI50 [43]: 9.08 µM | TGI [43]: 29.5 µM | GI50 [44]: 88.9 µM | TGI [44]: > 100 µM | GI50 [45]: 26.7 µM | TGI [45]: 99.7 µM | GI50 [46]: > 100 µM | TGI [46]: > 100 µM | GI50 [57]: 75.9 µM | TGI [57]: > 100 µM | GI50 [47]: 8.35 µM | TGI [47]: > 100 µM | GI50 [48]: 25.5 µM | TGI [48]: > 100 µM | GI50 [58]: 82.9 µM | TGI [58]: > 100 µM | GI50 [49]: 50.4 µM | TGI [49]: > 100 µM | GI50 [50]: 21.8 µM | TGI [50]: 78.9 µM | GI50 [51]: 38.2 µM | TGI [51]: > 100 µM | GI50 [52]: 28.3 µM | TGI [52]: > 100 µM | GI50 [53]: 64.3 µM | TGI [53]: > 100 µM
